In the METLIN SMRT retention time set (Domingo-Almenara et al. 2019):

Assay: gradient 5% acetonitrile 3 min, to 50% in 2 min, to 85% in 15 min, held 3 min, 100 µL/min
Details: column: Zorbax Extend-C18 2.1 x 50 mm; eluents: water / acetonitrile, 0.1% formic acid
Procedure, shortened: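 Data were gathered over 3 months by HPLC coupled to a quadrupole time-of-flight mass spectrometer, operated in positive and negative ionization mode. Mixtures of ~100 pure standards ran on a Zorbax Extend-C18 column (2.1 × 50 mm, 1.8 μm) at 100 μL/min, with water and acetonitrile each containing 0.1% formic acid and dead and dwell volumes of 40 μL and 900 μL. Retention time was read from adduct peaks picked by computer and checked manually.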

RP-LC retention time | SMILES
842 s | COc1ccccc1C(=O)NCCc1c[nH]c2ccc(F)cc12
635 s | CC(C)Cn1c(=O)c(C(=O)NCCc2cccnc2)nc2cccnc21
575 s | CN(C)C[C@@H]1CN(S(C)(=O)=O)C[C@H]1NC(=O)Cn1c(=O)oc2ccccc21
986 s | CCN1C(=O)c2cc(S(=O)(=O)Nc3ccc(C)c(C)c3)ccc2Oc2cccnc21
580 s | Cc1ccc(CNCCSc2nnnn2C)s1
577 s | CCCN1CCN(C(=O)CCC(=O)N2CCc3c(c(C(=O)N4CCCC4)nn3C)C2)CC1
1070 s | COc1ccc(-c2ncc3c(n2)CCN(S(=O)(=O)c2cccc(C)c2)C3)cc1
611 s | Cc1cnc(C2CCOCC2)n1C1CCN(C(=O)NC2CCCCC2)CC1
575 s | CCOC(=O)c1[nH]c2ccc(OC)cc2c1NC(=O)CN(C)C
738 s | COc1ccc(-c2ccnn2-c2ccc(SCc3ccc(F)cc3)nn2)cc1
628 s | Cc1cc(=O)n(CC(=O)Nc2ccccc2)c(N2CCOCC2)n1
922 s | Cc1ccc2c(c1)N(CCCC(=O)Nc1ccc(C)c(C)c1)C(=O)CO2
661 s | CCC(=O)N1CCCN(C2=NS(=O)(=O)C(c3ccc(Cl)cc3)=C2C)CC1
794 s | O=C(N[C@H]1C[C@@H]2C[C@H]1CN2S(=O)(=O)c1ccc(C(F)(F)F)cc1)c1cccnc1
846 s | Cc1ccc(S(=O)(=O)N2CCC3(CC2)CC(C)(O)CCO3)cc1F (stereo unspecified)
804 s | COc1ccc2[nH]cc(CCNC(=O)C3CCCCC3)c2c1
739 s | Cc1ccc(Nc2c(-c3ccc(N4CCOCC4)cc3)nc3c(C)cccn23)cc1
934 s | O=C(NCc1ccc2c(c1)CCCN2C(=O)C1CCC1)c1cc(F)cc(F)c1
733 s | CCOc1ccc(OCC)c(S(=O)(=O)N2CCN(c3nc(C)cc(N(C)C)n3)CC2)c1
874 s | CCc1ccc(N2C(=O)CN(S(C)(=O)=O)CC2(C)C(=O)NCc2ccc(Cl)cc2)cc1 (stereo unspecified)
566 s | CC(O)C1CCN(Cc2ccc(Br)o2)CC1 (stereo unspecified)
922 s | CCOc1ccc(S(=O)(=O)N2CCC(C(=O)NC3CCCCC3)CC2)cc1

RP-LC retention time | SMILES
789 s | COCC(=O)Nc1ccc(SCc2nnc(-c3ccc4c(c3)OCO4)o2)cc1
626 s | O=C(c1ccc2nc[nH]c2c1)N1CCC(c2nc(-c3ccccc3)no2)C1 (stereo unspecified)
767 s | CCOc1ccc(CCNC(=O)C2CCCN(c3nccc(C)n3)C2)cc1OCC (stereo unspecified)
990 s | COc1ccc(OC)c(NC(=O)C(=O)c2c(C)n(C)c3ccccc23)c1
904 s | Cc1cccc2c(=O)n(C3CCN(S(=O)(=O)c4ccc(F)cc4F)CC3)cnc12
692 s | Cc1nn(-c2ccc(N3CCOCC3)nn2)c(C)c1CCC(=O)NCCCc1ccco1
917 s | Cc1cc(C(=O)Nc2c(F)c(F)c(F)c(F)c2F)n(-c2ccccc2)n1
878 s | O=C(CCn1nnc2cc(-c3noc(Cc4ccc(Cl)cc4)n3)ccc21)N1CCOCC1
959 s | Cc1cc(S(=O)(=O)N2C[C@@H](F)C[C@H]2C(=O)N2CCc3ccccc3C2)ccc1F
859 s | CCC(=O)Oc1ccc(N(C)C2=NS(=O)(=O)c3ccccc32)cc1
769 s | COc1ccc(CNC(=O)N(Cc2ccsc2)C2CC2)cc1OC
802 s | Cc1ccc(-c2nnc(SCC(=O)Nc3cc(C)ccc3C)o2)cc1
900 s | COc1ccc(CNC(=O)C2(C)CCCN(S(=O)(=O)c3ccccc3F)C2)cc1 (stereo unspecified)
900 s | Cc1ccc(NC(=O)C(C)C2CCN(C(=O)Nc3ccccc3)CC2)cc1C (stereo unspecified)
942 s | CCCn1cc(S(=O)(=O)Nc2ccc(Cl)cc2)c2cccnc21
637 s | CCc1ccccc1S(=O)(=O)Cc1ccc(C(=O)N2CCN(c3ccccn3)CC2)o1
555 s | COc1ccc(CN2CCc3nc(N4CCN(c5ccccn5)CC4)ncc3C2)c(OC)c1OC
790 s | Clc1cccc(Nc2nnc(-c3ccccc3)c3ccccc23)c1
929 s | CCCn1c(=O)sc2cc(S(=O)(=O)N3CCC(C(=O)Nc4ccc(CC)cc4)CC3)ccc21
693 s | Cc1cc(C)nc(Nc2nc(C(=O)NCCn3nc(-c4ccco4)ccc3=O)cs2)n1
980 s | O=C(c1ccsc1)N1CCCC1c1nc(CCOCC2CCCC2)no1 (stereo unspecified)
620 s | COCCN1CCC(N2CCN(S(=O)(=O)c3ccc(F)c(Cl)c3)CC2)C1=O (stereo unspecified)

RP-LC retention time | SMILES
951 s | COc1ccc(NC(=O)Cn2cccc2-c2nnc(C3CCC3)o2)cc1Cl
588 s | COc1ccc(-n2nc(C(=O)N3CCC(C(N)=O)CC3)c(=O)cc2OC)cc1OC
710 s | Cc1ccc(Cn2c(=O)n(CCNC(=O)C3CCOC3)c3ncccc32)cc1 (stereo unspecified)
744 s | COC[C@@H](c1ccc(C(F)(F)F)cc1)N1CCN(C2(C)CCN(C(=O)c3c(C)ncnc3C)CC2)C[C@@H]1C
767 s | COCCNC(=O)c1ccc2c(c1)CCCN2S(=O)(=O)c1ccccc1
757 s | O=C(NCc1ccc2c(c1)OCO2)c1ncoc1-c1ccccc1C(=O)N1CCCC1
776 s | CCn1c(=O)c2c(cc(C)n2C)n(CC(=O)Nc2ccccc2C)c1=O
671 s | CCn1ccc2cc(S(=O)(=O)N3CCC(C(=O)N4CCN(c5ccccc5)CC4)CC3)ccc21
543 s | Cc1ccn2cc(C(=O)NCc3ccc(N(C)C)cc3)nc2c1
558 s | O=C(Cn1cnc2ccccc21)Nc1nc2c(s1)C(=O)CCC2
1010 s | COc1cccc(-c2noc(Cn3ccn4nc(-c5ccc(F)cc5)cc4c3=O)n2)c1OC
947 s | CCN(CC)C(=O)CN(C)C(=O)c1cc2c(s1)N(CC1CC1)CCCC2
839 s | Cc1noc(C)c1Cc1ccc(C(=O)N2CCCCCCNC(=O)[C@@H]3CCCC[C@@H]32)o1
767 s | CS(=O)(=O)N1CCC(OC2CCN(C(=O)c3ccc(Cl)cc3)CC2)CC1
867 s | O=C(O)c1ccccc1-c1ccccc1C(=O)Nc1nc2ccccc2s1
914 s | O=C(NCc1ccc(F)cc1)N1CCCC1c1nc(-c2ccccc2)no1 (stereo unspecified)
782 s | Cc1cc(C)cc(NC(=O)C2CCCN2S(C)(=O)=O)c1 (stereo unspecified)
724 s | Cc1cc(C(=O)N2CCC3(CC2)C(=O)N(C)c2ccccc23)n(C)n1
1070 s | O=C(Nc1ccccc1Cl)C(=O)c1cn(CC(=O)N2CCCC2)c2ccccc12
847 s | CCOC(=O)CNC(=O)NCC(c1ccccc1)c1c[nH]c2ccccc12 (stereo unspecified)
802 s | O=S(=O)(c1ccc(Cl)c(-c2nnc(-c3ccccc3)o2)c1)N1CCN(c2ccccn2)CC1

SMILES | RP-LC retention time
O=C(Cc1c(F)cccc1Cl)N1CCN(Cc2ccsc2)CC1 | 570 s
